Results reported in patent publication US20090317372A1, “SMALL MOLECULES FOR THE REDUCTION OF HIGH BLOOD GLUCOSE LEVEL” (priority 2008, published 2009).

Legend:
Type in all cases: in vivo
ob/ob mice [1] = test: Blood glucose in ob/ob mice, CCcompound1 combined with human proteins AGP and TF
Description: For each experimental group, ob/ob mice were chosen (5 mice in each group) that were 43 days old and weighed on average 40.3±1.9-g on the first day of experiment. Three groups of mice were treated with s.c. injection of 4.5-mg/kg CCcompound1 once every day for 17 days. Mice in one of these CCcompound1-treated groups received no other treatment, and their blood was drawn for glucose analysis on day 14 and 17 exactly 45 min after treatment. The second CCcompound1-treated group also received 0.5-mg/mouse (˜11 mg/kg) dose of greater than 98% pure commercial human transferrin [catalogue number, T 3309 according to 2004/2005 Sigma catalogue]. In this second group the blood was drawn on day 14 just prior to TF administration and on day 17 two hours after TF and 45 min after CCcompound1 administration. An additional group of animals received only TF treatment. The third CCcompound1-treated group also received 1.2-mg/mouse (26.6-mg/kg) dose of >99% pure human AGP [catalogue number G 9885 according to 2004/2005 Sigma catalogue]; in this group the blood was drawn on day 14 just prior to AGP administration and on day 17 two hours and 45 minutes after administration of AGP and CCcompound1, respectively. An additional group of animals received only AGP treatment, and yet another group of animals received no treatment at all. On day 1, prior to any treatment, the blood glucose level of all animals was in the range of 7.2-7.9 mM.

Wistar rats = test: Glucose tolerance test in starved rats
Description: Male Wistar rats weighing 240-270-g were divided into 3 groups, each group consisting of 6 or 7 animals. To ensure standard conditions animals were starved for 14 hours before the start of the experiment. CCcompound1 and CCcompound3 were injected (i.p.) 30 min prior to injecting 3-g/kg of glucose (i.p.). Blood sugar values of the experimental animals were measured with the Fast Glucose C-test; blood samples were taken from the tail. The data are the mean±std. dev. of 6-7 determinations, i.e. one determination with each of the 6-7 animals in the respective groups.

C57/BL/6 mice [2] = test: Glucose tolerance test with normal mice (CC1, CC3, CC19); details: for Reduction of blood glucose level: 30th min of test period
Description: C57/BL/6 female mice weighing 22-23-g and fasted for 14 hours before intraperitoneal (i.p.) administration of glucose (3-g/kg) were used. None of the animals received any food during the experiment other than glucose. The animals received i.p. injections of 4.5-mg/kg of CCcompound1, CCcompound3, or CCcompound19 either 1 hour or 24 hours prior to glucose administration as indicated in TABLE 3. Blood samples were taken from the eyes (canthus), and glucose concentrations in whole blood samples were immediately measured with the Fast Glucose C test. Each group included six animals. The data, shown in TABLE 3, are the mean±std. dev. of 6 determinations, i.e. one determination with each of the six animals. In this and all subsequent experiments the values at 0 min reflect glucose concentration in blood samples collected 1-5 minutes prior to the administration of glucose.

ob/ob mice [3] = test: Blood glucose level of normally fed ob/ob obese diabetic mice, daily treatment; details: second experiment
Source text: Adult female leptin-deficient ob/ob obese diabetic inbred specified pathogen free (SPF) hygienic category mice from Charles River VRF1 were used for these experiments. The mice weighed 32-36-g at arrival. The ob/ob obese mouse is an extensively used animal model for the study of non-insulin-dependent-diabetes mellitus (NIDDM). The mutation was propagated in the C57BL/6J (BL/6) inbred strain. Homozygous obese (ob/ob) animals developed hyperglycemia due to insulin resistance, hyperinsulinemia (to compensate for reduced insulin action), and obesity. In these animals gluconeogenesis is enhanced despite their hyperinsulinemic state. The animals were kept in macrolon cages at 22-24° C. and 50-60% humidity, with lighting regimen of 12/12 h light dark. They had free access to tap water and were fed a sterilized standard diet (Charles River VRF1, autoclavable). The animals were cared for according to the “Guiding Principles for the Care and Use for Animals” based upon the Helsinki declaration. The ob/ob mice gained weight rapidly and developed a marked obesity by 5-6 weeks of age. […] When arrived they were 5 weeks old (when the experiment was performed with CCcompound1) or 4.5 weeks old (when the experiment was performed with CCcompound3 and CCcompound19). The treatments started 8 days later in the experiment performed with CCcompound1 and 10 days later in the experiment performed with CCcompound3 and CCcompound19. Experimental groups selected from ob/ob mice were injected subcutaneously (s.c.) at regular intervals once daily for 14 days with CCcompound1 or an analog (CCcompound3 or CCcompound19) each at the dose of 4.5-mg per kg. Control groups were also selected from ob/ob mice that remained untreated during the entire length of the experiment. In the first experiment, for which the data is presented in TABLE 11, blood samples were taken either 45 min or 6 hours after treatments with CCcompound1. In the second experiment, for which the data is presented in TABLE 12, blood samples were taken 45 min after treatments with the analogs of CCcompound1. Blood glucose was determined with the Fast Glucose C test. Both the untreated and CC compound-treated groups included 5 animals. The data are the mean±std. dev.

C57/BL/6 mice [4] = test: Glucose tolerance test with normal mice, CCcompound1 and sub-optimal insulin; details: CCcompound1 4.5-mg/kg i.p. 60 min and/or insulin 0.02 IU 15 min prior to glucose
Description: In this experiment, a sub-optimal dose of insulin (0.02 international unit-IU) was used to probe if CCcompound1 indeed can enhance the effect of insulin on blood glucose. Again C57/BL/6 female mice weighing 22-23-g and fasted for 14 hours prior to i.p. glucose administration (3-g/kg), were used. None of the animals received any food during the experiment other than glucose. The animals received i.p. injections of 4.5-mg/kg of CCcompound1 and/or 0.02 Unit insulin 60 min and 15 min prior to glucose administration, respectively. Blood samples were taken and glucose concentrations measured as indicated earlier. Each group included six animals. The data are the mean±std. dev. of 6 determinations, i.e. one determination with each of the six animals.

[5] = system: BDF1 (C57/BL/6 female×DBA/2 male) mice; test: Glucose tolerance test with BDF1 mice, CCcompound1 and sub-optimal insulin; details: CCcompound1 4.5-mg/kg i.p. −15 min and/or insulin 0.02 IU −10 min
Description: In this experiment again, a sub-optimal dose of insulin was used to probe if CCcompound1 can enhance the effect of insulin on blood glucose. This time first generation hybrid BDF1 (C57/BL/6 female×DBA/2 male) adult (10-12 weeks old) male mice weighing 28-30-g and fasted for 14 hours before i.p. glucose administration (3-g/kg) were used. These mice were […] than mice in the previous experiment described under Example 5. None of the animals received any food during the experiment other than glucose. The animals received i.p. injections of 4.5-mg/kg of CCcompound1 and 0.02 IU of insulin 15 min and 10 min prior to glucose administration. Blood samples were taken and glucose concentrations in whole blood samples determined as described earlier. Each group included six animals. The data are the mean±std. dev. of 6 determinations, i.e. one determination with each of the six animals.

C57/BL/6 mice [6] = test: Glucose tolerance test with normal mice, PALP and CCcompound1 combined; details: PALP 0.4 mg/mouse i.p. −24 h
Description: Female C57/BL/6 mice weighing 24-26-g and fasted for 12 hours before i.p. glucose administration (3 g/kg) were used. None of the animals received any food during the experiment other than glucose. One group of animals was untreated while animals in other groups received subcutaneous (s.c.) injections of 2.0 or 4.5-mg/kg of CCcompound1 either 30 min or 60 min prior to glucose administration as indicated in TABLE 5. Two groups of animals received i.p. injections of 0.4-mg per mouse (˜16-mg per kg) of highly purified PALP 24 hours prior to glucose administration. Purification of PALP was described in detail earlier [Z. Kiss, U.S. Pat. No. 7,048,914, “Placental Alkaline Phosphatase to Control Diabetes]. Animals in one of the PALP treated group also received s.c. injections of 4.5-mg/kg of CCcompound1 30 min prior to glucose administration as indicated in TABLE 5. Blood samples were taken and glucose concentrations were immediately measured as described earlier. Each group included five animals. The data are the mean±std. dev. of 5 determinations, i.e. one determination with each of the five animals. “-min” and “-h” indicates the length of period in minutes and hours, respectively, elapsed between the administration of test agents (first) and glucose (second).

[7] = 14th day, CC1 4.5-mg/kg s.c. daily, 45 min after treatment, blood drawn just prior to AGP or TF administration
[8] = 17th day, 45 min after CC1 4.5-mg/kg s.c., two hours after TF 0.5-mg/mouse or AGP 1.2-mg/mouse
[9] = 4.5-mg/kg i.p. 1 h prior to glucose 3-g/kg i.p., 0 min
[10] = 4.5-mg/kg i.p. 1 h prior to glucose
[11] = 4.5-mg/kg i.p. 1 h prior to glucose, 30 min
[12] = 4.5-mg/kg i.p. 1 h prior to glucose, 60 min
[13] = 4.5-mg/kg i.p. 1 h prior to glucose, 120 min
[14] = 4.5-mg/kg i.p. 1 h prior to glucose, 180 min
[15] = 4.5-mg/kg s.c. once daily, 45 min after treatment, day 1
[16] = 4.5-mg/kg s.c. once daily, day 0

“AGP: >99% pure human α1-acid glycoprotein, Sigma G 9885” was tested, and the Blood glucose level (ob/ob mice [1]; [7]) was 16.0 ± 0.5 mM and the Blood glucose level (ob/ob mice [1]; [8]) was 12.4 ± 0.6 mM.

“TF: greater than 98% pure commercial human transferrin, Sigma T 3309” was tested, and the Blood glucose level (ob/ob mice [1]; [7]) was 15.8 ± 0.4 mM and the Blood glucose level (ob/ob mice [1]; [8]) was 13.6 ± 0.7 mM.

`CC[N+](C)(CC)CCOCc1ccc2sc3ccccc3c(=O)c2c1` [CCcompound 3] was tested, and the Blood glucose (Wistar rats; rats starved 14 h, i.p. 30 min prior to glucose 3-g/kg i.p., 0 min) was 4.73 ± 0.24 mM, the Blood glucose (Wistar rats; rats, i.p. 30 min prior to glucose, 30 min) was 9.36 ± 0.43 mM and the Blood glucose (Wistar rats; rats, i.p. 30 min prior to glucose, 60 min) was 6.66 ± 0.33 mM. It also gave a Blood glucose (Wistar rats; rats, i.p. 30 min prior to glucose, 90 min) of 5.71 ± 0.38 mM, a Blood glucose (Wistar rats; rats, i.p. 30 min prior to glucose, 120 min) of 5.43 ± 0.60 mM and a Blood glucose (C57/BL/6 mice [2]; [9]) of 1.7 ± 0.5 mM. The “Reduction of blood glucose level” value (C57/BL/6 mice [2]; [10]) was 19%, the Blood glucose (C57/BL/6 mice [2]; [11]) was 6.6 ± 0.3 mM and the Blood glucose (C57/BL/6 mice [2]; [12]) was 5.0 ± 0.2 mM. For the same molecule, the Blood glucose (C57/BL/6 mice [2]; [13]) was 3.6 ± 0.5 mM, the Blood glucose (C57/BL/6 mice [2]; [14]) was 2.7 ± 0.4 mM and the Blood glucose (ob/ob mice [3]; [15]) was 7.6 ± 0.7 mM. The Blood glucose (ob/ob mice [3]; [16]) was 9.1 ± 0.6 mM, the Blood glucose (ob/ob mice [3]; 45 min after treatment, day 5) was 8.6 ± 0.9 mM and the Blood glucose (ob/ob mice [3]; 45 min after treatment, day 10) was 11.0 ± 0.6 mM. It also gave a Blood glucose (ob/ob mice [3]; 45 min after treatment, day 15) of 12.6 ± 0.5 mM.

For `C[N+](C)(C)CCC=C1c2ccccc2Sc2ccccc21.[I-]` [CCcompound 19, N,N,N-trimethyl-3-(9H-thioxanthen-9-ylidene)-propane-1-aminium iodide], the Blood glucose (C57/BL/6 mice [2]; [9]) was 2.1 ± 0.5 mM, the “Reduction of blood glucose level” value (C57/BL/6 mice [2]; [10]) was 23% and the Blood glucose (C57/BL/6 mice [2]; [11]) was 5.7 ± 0.4 mM. It also gave a Blood glucose (C57/BL/6 mice [2]; [12]) of 4.6 ± 0.6 mM, a Blood glucose (C57/BL/6 mice [2]; [13]) of 3.1 ± 0.2 mM and a Blood glucose (C57/BL/6 mice [2]; [14]) of 2.2 ± 0.4 mM. It also gave a Blood glucose (ob/ob mice [3]; [15]) of 6.2 ± 0.9 mM, a Blood glucose (ob/ob mice [3]; [16]) of 9.3 ± 0.7 mM and a Blood glucose (ob/ob mice [3]; 45 min after treatment, day 5) of 7.7 ± 0.5 mM. The Blood glucose (ob/ob mice [3]; 45 min after treatment, day 10) was 9.3 ± 0.9 mM and the Blood glucose (ob/ob mice [3]; 45 min after treatment, day 15) was 10.4 ± 1.0 mM.

Work on “Insulin: insulin, sub-optimal dose 0.02 IU [reference compound]” yielded a Blood glucose (C57/BL/6 mice [4]; 0 min) of 2.1 ± 0.6 mM, a Blood glucose (C57/BL/6 mice [4]; 30 min) of 7.2 ± 0.4 mM and a Blood glucose (C57/BL/6 mice [4]; 60 min) of 5.6 ± 0.5 mM. The Blood glucose (C57/BL/6 mice [4]; 120 min) was 3.8 ± 0.4 mM, the Blood glucose ([5]; 0 min) was 3.1 ± 0.4 mM and the Blood glucose ([5]; 30 min) was 6.4 ± 0.5 mM. For the same molecule, the Blood glucose ([5]; 60 min) was 5.6 ± 0.3 mM.

B1: PALP: highly purified placental alkaline phosphatase (protein, UniProt P05187 23-506, looked up)
Alkaline phosphatase, …: IIPVEEENPDFWNREAAEALGAAKKLQPAQTAAKNLIIFLGDGMGVSTVTAARILKGQKKDKLGPEIPLAMDRFPYVALSKTYNVDKHVPDSGATATAYLCGVKGNFQTIGLSAAARFNQCNTTRGNEVISVMNRAKKAGKSVGVVTTTRVQHASPAGTYAHTVNRNWYSDADVPASARQEGCQDIATQLISNMDIDVILGGGRKYMFRMGTPDPEYPDDYSQGGTRLDGKNLVQEWLAKRQGARYVWNRTELMQASLDPSVTHLMGLFEPGDMKYEIHRDSTLDPSLMEMTEAALRLLSRNPRGFFLFVEGGRIDHGHHESRAYRALTETIMFDDAIERAGQLTSEEDTLSLVTADHSHVFSFGGYPLRGSSIFGLAPGKARDRKAYTVLLYGNGPGYVLKDGARPDVTESESGSPEYRQQSAVPLDEETHAGEDVAVFARGPQAHLVHGVQEQTFIAHVMAFAACLEPYTACDLAPPAGTTD
B1 gave a Blood glucose (C57/BL/6 mice [6]; 0 min) of 3.7 ± 0.5 mM, a Blood glucose (C57/BL/6 mice [6]; 30 min) of 6.8 ± 0.3 mM and a Blood glucose (C57/BL/6 mice [6]; 60 min) of 5.3 ± 0.4 mM. For the same molecule, the Blood glucose (C57/BL/6 mice [6]; 120 min) was 4.3 ± 0.5 mM.
